Where two headings read alike, the source gives them in different places.
What was measured:
[1] = tested on: PTH-induced resorption of 45Ca from chick fetal bones in culture; experiment: Antiosteoporosis (antiresorptive) activity in vitro, chick fetal bone assay; assay type: cell-based; details: for T/C ratio: 100 μM, inhibition in PTH-induced resorption of 45Ca
Experimental: Test solutions of the compounds of the present invention are prepared in appropriate solvents in concentration range of 5 millimolar to 400 millimolar, most preferably in concentrations of 20 millimolar. 5 μl of each concentration are used for evaluation of antiresorptive activity in vitro. In control experiments, 5 μl of appropriate solvent is used in lieu of test compound. Femur bones are isolated from chick embryos on day 11 post-ovulation. The adhering soft connective tissue is completely removed. Each femur bone is then placed in a drop of phosphate buffered saline (PBS) and is transferred to BGJb culture medium containing ^45CaCl2 and incubated for 2 h. Labeled femur bones are washed 2-3 times with PBS and transferred to BGJb medium containing parathyroid hormone and cultured for 96 h in the presence or absence of the compound of invention or the vehicle in BGJb medium. Contralateral femur of each fetus serves as corresponding control. Culture medium with the respective treatment in each well is changed after 48 h. On termination of the culture at 96 h, bones are transferred to 0.1 N HCl for 24 h. Radioactivity due to ^45Ca in the spent medium collected at 48 and 96 h of culture and HCl extract at 96 h of culture is quantified by Liquid Scintillation Spectrophotometer in 10 ml of the scintillation fluid. Bone resorbing activity is expressed as percentage of ^45Ca released into the culture medium and the effect of the compound of invention as percent of the corresponding contra-lateral control or T/C ratio as shown below: [formula] Appropriate solvents are selected from solvents like water, normal (physiological) saline, phosphate buffered saline, phosphate buffer, DMSO alone or in a suitable combinations thereof.

[2] = tested on: immature ovariectomized rats; experiment: Estrogen agonistic activity (uterine weight and uterine morphometry); assay type: in vivo, rat; details: for Percent increase in uterine weight (percent of OVX + vehicle treatment group): 3 days
Experimental: Twenty-one-day-old immature female rats are bilaterally ovariectomized under light ether anaesthesia and, after post-operative rest for 7 days, are randomized into different treatment groups. Each rat receives the compound of the invention once daily for 3 consecutive days on days 28-30 of age. A separate group of animals receiving only the vehicle for similar duration serves as control. At autopsy 24 h after the last treatment on day 31 of age, vaginal smear of each rat is taken and uterus is carefully excised, gently blotted, weighed and fixed for histology and histomorphometry using image analysis. Premature opening of vagina, cornification of vaginal epithelium, increase in uterine fresh weight, total uterine and endometrial area and uterine luminal epithelial cell height are taken as parameters for evaluation of estrogen agonistic activity in comparison to rats of vehicle control group.
For image analysis in estrogen agonistic activity evaluation studies, paraffin sections (6 μm thick) of the uterus stained with haematoxylin and eosin were analysed microscopically. To determine changes in uterine tissue components, areas of whole uterus and endometrium and the thickness of uterine epithelium were measured using a computer-image analysis system (BioVis, Expert Vision, India). Briefly, microscopic images of uterus acquired through a CCD camera were loaded in to the image analysis program and spatially calibrated against a stage micrometer image taken at the same magnification. Using thresholding and line tools, the regions for measurements were selected and the area (mm^2) of whole uterine transection excluding the luminal space, the area (mm^2) of the endometrium only, and the thickness (μm) of luminal epithelial lining were measured. Luminal epithelial thickness data was the Average of measurements made at 6 randomly selected sites are taken as parameters for evaluation.

[3] = tested on: adult female rats; experiment: Post-coital antifertility activity; assay type: in vivo, rat; details: for % Efficacy: oral
Experimental: Adult female rats are caged overnight with coeval males of proven fertility and their vaginal smears are checked on the following morning. The day of presence of spermatozoa in the vaginal smear is taken as day 1 of pregnancy. […] Animals of all the groups are autopsied on day 10 post-coitum and number and status of corpora lutea and implantation sites in each rat are recorded. The compounds of the present invention are considered active if there is complete absence of implantations in the uterus of all rats, in comparison to presence of normal implantations in the uterus of rats of vehicle control group.

[4] = tested on: immature ovariectomized rats; experiment: Estrogen antagonistic activity (EE induced uterine weight gain); assay type: in vivo, rat; details: 3 days
Experimental: Twenty-one-day-old immature female rats are bilaterally ovariectomized under light ether anaesthesia and after post-operative rest for 7 days, are randomized into different treatment groups. Each rat receives the compounds of the invention and 0.02 mg/kg dose of 17-alfa-ethynylestradiol in 10% ethanol-distilled water once daily for 3 consecutive days on days 28-30 of age. A separate group of animals-receiving only 17-alfa-ethynylestradiol (0.02 mg/kg) in 10% ethanol-distilled water for similar duration are used for comparison. At autopsy on day 31 of age, vaginal smear of each rat is taken and uterus is carefully excised, gently blotted, weighed and fixed for histology and histomorphometry using image analysis. Inhibition in 17-alfa-ethynylestradiol-induced premature opening of vagina, cornification of vaginal epithelium, increase in uterine fresh weight, total uterine and endometrial area and uterine luminal epithelial cell height are taken as parameters for evaluation of estrogen antagonistic activity.

[5] = molecular target: T1, estrogen receptors (Rattus norvegicus, UniProt P06211); experiment: Relative binding affinity (RBA) to estrogen receptors, 3H-estradiol competition assay; details: rat uterine cytosol, 3H-E2, 18 hrs at 4° C.; relative to 17-beta-estradiol = 100
T1 construct: Aliquot of uterine cytosol (200 μl; 2 uteri per ml) prepared in TEA buffer; from tissue; host or cells: uterine cytosol of immature estradiol-primed 20-21 day old rats
T1 sequence (P06211 1-600): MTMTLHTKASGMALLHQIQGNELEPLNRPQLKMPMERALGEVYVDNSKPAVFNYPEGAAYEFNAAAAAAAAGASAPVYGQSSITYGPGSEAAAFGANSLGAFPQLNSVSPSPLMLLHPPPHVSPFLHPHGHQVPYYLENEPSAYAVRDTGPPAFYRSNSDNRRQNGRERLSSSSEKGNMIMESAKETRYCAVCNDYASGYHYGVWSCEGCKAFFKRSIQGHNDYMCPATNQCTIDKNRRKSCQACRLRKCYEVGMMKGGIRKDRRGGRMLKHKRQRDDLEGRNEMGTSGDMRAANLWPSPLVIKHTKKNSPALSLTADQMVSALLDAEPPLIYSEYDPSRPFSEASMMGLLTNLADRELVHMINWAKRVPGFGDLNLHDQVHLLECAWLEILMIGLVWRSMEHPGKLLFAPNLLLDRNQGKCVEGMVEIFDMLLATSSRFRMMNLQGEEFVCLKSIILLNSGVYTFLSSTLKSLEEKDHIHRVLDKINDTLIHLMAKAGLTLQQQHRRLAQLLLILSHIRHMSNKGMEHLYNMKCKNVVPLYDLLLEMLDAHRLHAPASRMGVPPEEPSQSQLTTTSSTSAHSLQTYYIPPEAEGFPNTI

[6] = tested on: MCF-7 cells; experiment: cells; assay type: cell-based, human
Experimental: The procedure is based on the following methods: New colorimetric assay for anticancer drug screening, Skehan et al., J Natn Cancer Inst, 82,1107, 1990 and Feasibility of a high-flux anticancer drug screen using a diverse panel of cultured human tumor cell lines 83,757, 1991.
A fully confluent flask of MCF-7 cells in trypsinized and 10^4 cells/well are plated in a 96 welled flat bottomed plate in 200 μl Minimum Essential Medium (MEM), pH 7.4 and allowed to attach for 24 h at 37° C. in a humidified CO2 incubator. Subsequently, the compound of invention dissolved in DMSO or ethanol is added at a specified concentration and further incubated for 48 h as before. The cells are then fixed in 50 μl cold 50% TCA and incubated for 1 h at 4° C. The supernatant is discarded and the plate is washed five times with deionized water and air dried. 100 μl of 0.4% (w/v) Sulforhodamine B (SRB) in 1% acetic acid is added to each well and incubated at room temperature for 30 minutes. Unbound SRB is removed by five washes with chilled 1% acetic acid and the plate is air dried. 200 μl of unbuffered 10 mM Tris base is added to solublize the bound stain for 5 minutes at room temperature and O.D. is read at 560 nm in a plate reader. The graph is plotted between O.D. and concentration and LC50 is calculated with respect to tamoxifen, which is used as a positive control.

[7] = 0.025 mg/kg daily, days 1-5 post-coitum
[8] = 0.05 mg/kg daily, days 1-5 post-coitum
[9] = 0.1 mg/kg daily, days 1-7 post-coitum
[10] = 0.05 mg/kg daily with 0.02 mg/kg 17-alfa-ethynylestradiol
[11] = 0.1 mg/kg daily, days 1-5 post-coitum
[12] = cultured MCF-7 cells, 48 h, read-out: LC50 (the source's name)

Row | Compound | T/C ratio [1] | Endometrium Epithelial cell height ([2]; 0.05 mg/kg daily) [μm] | Endometrium Total area ([2]; 0.05 mg/kg daily) [mm^2] | Uterus Total area ([2]; 0.05 mg/kg daily) [mm^2] | Percent increase in uterine weight (percent of OVX + vehicle treatment group) ([2]; 0.05 mg/kg daily) [%] | % Efficacy [3, 8] [%] | % Efficacy ([3]; 0.5 mg/kg, day 1 post-coitum) [%] | % Efficacy ([3]; 1 mg/kg, day 1 post-coitum) [%] | Percent inhibition in EE induced uterine weight gain [4, 10] [%] | further results
1 | COc1ccc2c(c1)OC(C)(C)[C@@H](c1ccccc1)[C@@H]2c1ccc(OC[C@H]2CO2)cc1 (relative stereo) [Example number 1] | 0.59 | – | – | – | – | – | – | – | – | –
2 | CCCCNC[C@@H](O)COc1ccc([C@@H]2c3ccc(OC)cc3OC(C)(C)[C@H]2c2ccccc2)cc1 (relative stereo) [Example number 2, 3R,4R-trans-2,2-dimethyl-3-phenyl-4-(4-[{2R)-(3-n-butylamino-2-hydroxy}propyloxy]-phenyl)-7-methoxychroman] | – | 8.69 | 0.08 | 0.175 | 38 | 100 | 100 | 100 | 09 | estrogenic activity at the MED ([2]; at the MED (0.05 mg/kg)): devoid of any estrogenic activity; % Efficacy [3, 7]: 67%; % Efficacy [3, 9]: 100%; MED (prevention of pregnancy) ([3]; rats, administered during the pre-implantation period): 0.05 mg/kg; RBA [5]: 5.45
3 | CCCCNC[C@H](O)COc1ccc([C@@H]2c3ccc(OC)cc3OC(C)(C)[C@H]2c2ccccc2)cc1 (relative stereo) [Example number 7] | 0.41 | 6.17 | 0.13 | 0.35 | 11 | 100 | 50 | 100 | 31 | % Efficacy [3, 7]: Inactive; % Efficacy [3, 11]: 100%
4 | COc1ccc2c(c1)OC(C)(C)[C@@H](c1ccccc1)[C@@H]2c1ccc(OC[C@@H](O)CN2CCCC2)cc1 (relative stereo) [Example number 8] | – | 17.25 | 0.35 | 0.67 | 53 | 100 | 100 | 100 | 49 | % Efficacy [3, 11]: 100%; RBA [5]: 6.6
5 | COc1ccc2c(c1)OC(C)(C)[C@@H](c1ccccc1)[C@@H]2c1ccc(OCC2CO2)cc1 (relative stereo) [Example number 10, 3R,4R-Trans-2,2-dimethyl-3-phenyl-4-(4-(2,3-epoxypropyloxy)-phenyl)-7-methoxychroman] | 0.79 | – | – | – | – | – | – | – | – | –
6 | COc1ccc2c(c1)OC(C)(C)[C@@H](c1ccccc1)[C@@H]2c1ccc(OCC(O)CN2CCCC2)cc1 (relative stereo) [Example number 12, 3R,4R-Trans-2,2-dimethyl-3-phenyl-4-(4-(2-hydroxy-3-pyrrolidinopropyloxy)-phenyl)-7-methoxy chroman] | 0.77 | – | – | – | – | 50 | – | – | – | Endometrium Epithelial cell height ([2]; 0.1 mg/kg daily): 15.93 μm; Endometrium Total area ([2]; 0.1 mg/kg daily): 0.27 mm^2; Uterus Total area ([2]; 0.1 mg/kg daily): 0.56 mm^2; Percent increase in uterine weight (percent of OVX + vehicle treatment group) ([2]; 0.10 mg/kg daily): 120%; % Efficacy [3, 9]: 100%; Percent inhibition in EE induced uterine weight gain ([4]; 0.1 mg/kg daily with 0.02 mg/kg 17-alfa-ethynylestradiol): 38%; CC50 [6, 12]: 18.2 µM
7 | COc1ccc2c(c1)OC(C)(C)[C@@H](c1ccccc1)[C@@H]2c1ccc(OCC(O)CN2CCCCC2)cc1 (relative stereo) [Example number 13, 3R,4R-Trans-2,2-dimethyl-3-phenyl-4-(4-(2-hydroxy-3-piperidinopropyloxy)-phenyl)-7-methoxychroman] | – | – | – | – | – | – | – | – | – | CC50 [6, 12]: 17.8 µM
8 | C#C[C@]1(O)CC[C@H]2[C@@H]3CCc4cc(O)ccc4[C@H]3CC[C@@]21C [17-alfa-Ethynylestradiol, reference compound] | – | – | – | – | – | – | – | – | – | Endometrium Epithelial cell height ([2]; 0.01 mg/kg daily): 33.65 μm; Endometrium Total area ([2]; 0.01 mg/kg daily): 0.57 mm^2; Uterus Total area ([2]; 0.01 mg/kg daily): 1.21 mm^2; Percent increase in uterine weight (percent of OVX + vehicle treatment group) ([2]; 0.01 mg/kg daily): 419%
9 | O=C(c1ccc(OCCN2CCCCC2)cc1)c1c(-c2ccc(O)cc2)sc2cc(O)ccc12 [Raloxifene, reference compound] | – | – | – | – | – | – | – | – | – | T/C ([1]; comparator, concentration not given): 0.6
10 | CC/C(=C(\c1ccccc1)c1ccc(OCCN(C)C)cc1)c1ccccc1 [Tamoxifen, reference compound] | – | – | – | – | – | – | – | – | – | CC50 ([6]; Homo sapiens, MCF7, 48 h, read-out: LC50): 14.2 µM

Reference: patent publication US7427686B2, “(3R, 4R)-trans-3, 4-diarylchroman derivatives and a method for the prevention and/or treatment of estrogen dependent diseases” (Counsel of Scientific and Industrial Research, priority 2003, dated 2008)
